Literature values, collected in article PMC6168745 (Diabetes, Obesity & Metabolism, 2016).

Tests used:
[1] = system: participants with type 2 diabetes; details: + insulin glargine + metformin; CGM
[2] = system: people with type 2 diabetes

Row | Substance | glucose CV and MAGE compared with prandial insulin [1] | MAGE, large amplitude of glycaemic excursions and within-day s.d. of mean daily glucose ([2]; once daily, comparative trials with insulin) | MAGE from baseline ([2]; small uncontrolled study of Japanese people with type 2 diabetes)
1 | exenatide [Twice‐daily exenatide] | significantly reduced |  | 
2 | liraglutide |  | significantly reduced | significantly reduced
